Measurements: US5914341A, “Inhibitors of farnesyl-protein transferase” (Merck & Co., Inc., priority 1998, dated 1999)
Where a name gives a salt, the structure may show the parent alone.

Target: T1, human FPTase (Homo sapiens, UniProt P49354+P49356)
T1 construct: made in house
Assay: In vitro inhibition of ras farnesyl transferase (human FPTase assay)
Assay type: biochemical
Conditions: [3H]-FPP incorporation, 100 nM Ras-CVIM substrate, 30 min; read-out: IC50, inhibitory activity against human FPTase

Row | IC50 [µM] | SMILES
1 | < 30 | N#Cc1ccc(Cn2cncc2COC(=O)Nc2cccc(Cl)c2)cc1 [Example 1, N-(3-chlorophenyl)-O-[1-(4-cyanobenzyl)-5-imidazolylmethyl]-carbamate hydrochloride]
2 | < 30 | CCCCCN(C(=O)OCc1cncn1Cc1ccc(C#N)cc1)c1cccc(Cl)c1 [Example 2, N-(3-chlorophenyl)-N-(n-pentyl)-O-[1-(4-cyanobenzyl)-5-imidazolylmethyl]carbamate hydrochloride]
